The text below walks through data of BindingDB's records for patent US20250162989 (Vincere Biosciences, 2025).

The IC50 is the concentration that inhibits the measured activity by half.

The target in the assay is T1, Ubiquitin carboxyl-terminal hydrolase 30 (Homo sapiens, UniProt Q70CQ3).
T1 sequence (Q70CQ3 whole entry): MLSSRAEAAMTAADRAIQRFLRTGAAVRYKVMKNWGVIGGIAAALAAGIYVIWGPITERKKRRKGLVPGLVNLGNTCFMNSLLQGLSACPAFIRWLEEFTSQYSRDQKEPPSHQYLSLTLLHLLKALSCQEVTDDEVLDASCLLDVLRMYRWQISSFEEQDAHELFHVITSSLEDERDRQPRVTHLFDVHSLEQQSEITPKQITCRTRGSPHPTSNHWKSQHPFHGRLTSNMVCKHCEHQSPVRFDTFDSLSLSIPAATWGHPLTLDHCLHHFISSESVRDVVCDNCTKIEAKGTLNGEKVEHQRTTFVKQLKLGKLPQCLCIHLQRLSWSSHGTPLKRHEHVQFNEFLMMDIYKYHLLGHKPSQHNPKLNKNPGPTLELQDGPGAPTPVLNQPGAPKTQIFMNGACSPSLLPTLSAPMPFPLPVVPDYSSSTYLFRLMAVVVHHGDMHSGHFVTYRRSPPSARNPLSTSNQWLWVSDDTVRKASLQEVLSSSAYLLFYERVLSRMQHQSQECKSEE
The assay is described as follows: In Vitro USP30 Biochemical Assay.

Procedure: In vitro biochemical assay to establish the potency of compounds for USP30 inhibition: a 384-well plate assay using a fluorophore tagged substrate of USP30 was used for in vitro screening of compounds. Each compound was tested at 10 different concentrations (0.5 to 10,000 nM) in duplicate wells. […] Data were analyzed using Graph Pad Prism software with a four-parameter (floating slope) fit to log concentration data to determine IC50s.

On to `CC(C)(C)NS(=O)(=O)c1ccc(NC(=O)[C@H]2CCCN2C(=O)c2ccc(F)cc2)cc1` [US20250162989, Compound I-51], for which the IC50 was more than 10 µM.
